Assay results published in ChEMBL document CHEMBL3885861, “Open TG-GATES”.

Species: Rattus norvegicus
Experiment: Open TG-GATES - Regimen: Daily Repeat
Assay type: toxicity, organism-based, Sprague-Dawley
Design: regimen Daily Repeat, gender Male, age 6 weeks
Conditions: in vivo, po, 10 mg/kg, route gavage, dose level Low; for APTT / Bas / Eos / Fbg / Hb / Ht / Lym / MCH / MCHC / MCV / Mono / Neu / PT / Plat / RBC / Ret / WBC: tissue Blood; for KIDNEY_L / KIDNEY_R / KIDNEY_TOTAL: tissue Kidney; for LIVER: tissue Liver; for A/G / ALP / ALT / AST / BUN / CRE / Ca / Cl / DBIL / GLC / IP / K / LDH / Na / PL / RALB / TBIL / TC / TG / TP / gamma-GTP: tissue Plasma

NC(=O)N/N=C/c1ccc([N+](=O)[O-])o1 [NITROFURAZONE]
TERMINAL_BW (72 h, time 3 day): 217.9 g
APTT (72 h, time 3 day): 14.6 s
Bas (72 h, time 3 day): 0.2%
Eos (72 h, time 3 day): 0.8%
Fbg (72 h, time 3 day): 265.6 mg/dL
Hb (72 h, time 3 day): 12.9 g/dL
Ht (72 h, time 3 day): 39.6%
Lym (72 h, time 3 day): 77.8%
MCH (72 h, time 3 day): 22.1 pg
MCHC (72 h, time 3 day): 32.6%
MCV (72 h, time 3 day): 67.8 fL
Mono (72 h, time 3 day): 3.2%
Neu (72 h, time 3 day): 17.8%
PT (72 h, time 3 day): 14.4 s
Plat (72 h, time 3 day): 118.7 x10_4/uL
RBC (72 h, time 3 day): 584.8 x10_4/ul
Ret (72 h, time 3 day): 9.3%
WBC (72 h, time 3 day): 97.1 x10_2/uL
KIDNEY_L (72 h, time 3 day): 1 g
KIDNEY_R (72 h, time 3 day): 1 g
KIDNEY_TOTAL (72 h, time 3 day): 1.9 g
LIVER (72 h, time 3 day): 10.7 g
A/G (72 h, time 3 day): 0.9
ALP (72 h, time 3 day): 1665.4 IU/L
ALT (72 h, time 3 day): 49 IU/L
AST (72 h, time 3 day): 74.6 IU/L
BUN (72 h, time 3 day): 15 mg/dL
CRE (72 h, time 3 day): 0.2 mg/dL
Ca (72 h, time 3 day): 11.3 mg/dL
Cl (72 h, time 3 day): 105.6 meq/L
DBIL (72 h, time 3 day): 0.018 mg/dL
GLC (72 h, time 3 day): 189 mg/dL
IP (72 h, time 3 day): 7.9 mg/dL
K (72 h, time 3 day): 4.3 meq/L
LDH (72 h, time 3 day): 69.6 IU/L
Na (72 h, time 3 day): 141.4 meq/L
PL (72 h, time 3 day): 151.8 mg/dL
RALB (72 h, time 3 day): 2.6 g/dL
TBIL (72 h, time 3 day): 0.048 mg/dL
TC (72 h, time 3 day): 85 mg/dL
TG (72 h, time 3 day): 97.8 mg/dL
TP (72 h, time 3 day): 5.5 g/dL
gamma-GTP (72 h, time 3 day): 1 IU/L
TERMINAL_BW ([…], time 7 day): 257.3 g
TERMINAL_BW ([…], time 14 day): 318.7 g
TERMINAL_BW ([…], time 28 day): 442.9 g
APTT ([…], time 7 day): 16.7 s
Bas ([…], time 7 day): 0%
Eos ([…], time 7 day): 1%
Fbg ([…], time 7 day): 257 mg/dL
Hb ([…], time 7 day): 13.2 g/dL
Ht ([…], time 7 day): 39.3%
Lym ([…], time 7 day): 79.2%
MCH ([…], time 7 day): 21.5 pg
MCHC ([…], time 7 day): 33.7%
MCV ([…], time 7 day): 64 fL
Mono ([…], time 7 day): 2.4%
Neu ([…], time 7 day): 16.6%
PT ([…], time 7 day): 14.3 s
Plat ([…], time 7 day): 113.7 x10_4/uL
RBC ([…], time 7 day): 615 x10_4/ul
Ret ([…], time 7 day): 7.1%
WBC ([…], time 7 day): 83.6 x10_2/uL
APTT ([…], time 14 day): 15.2 s
Bas ([…], time 14 day): 0.2%
Eos ([…], time 14 day): 0.8%
Fbg ([…], time 14 day): 353 mg/dL
Hb ([…], time 14 day): 13.5 g/dL
Ht ([…], time 14 day): 40.9%
Lym ([…], time 14 day): 80%
MCH ([…], time 14 day): 20.2 pg
MCHC ([…], time 14 day): 33%
MCV ([…], time 14 day): 61.3 fL
Mono ([…], time 14 day): 2%
Neu ([…], time 14 day): 14.4%
PT ([…], time 14 day): 14.7 s
Plat ([…], time 14 day): 111.7 x10_4/uL
RBC ([…], time 14 day): 666.6 x10_4/ul
Ret ([…], time 14 day): 4.5%
WBC ([…], time 14 day): 106.9 x10_2/uL
APTT ([…], time 28 day): 16.4 s
Bas ([…], time 28 day): 0%
Eos ([…], time 28 day): 1.4%
Fbg ([…], time 28 day): 292.6 mg/dL
Hb ([…], time 28 day): 14.7 g/dL
Ht ([…], time 28 day): 43.8%
Lym ([…], time 28 day): 76.4%
MCH ([…], time 28 day): 19.3 pg
MCHC ([…], time 28 day): 33.6%
MCV ([…], time 28 day): 57.6 fL
Mono ([…], time 28 day): 2.2%
Neu ([…], time 28 day): 19.4%
PT ([…], time 28 day): 14.8 s
Plat ([…], time 28 day): 94.4 x10_4/uL
RBC ([…], time 28 day): 761 x10_4/ul
Ret ([…], time 28 day): 3%
WBC ([…], time 28 day): 94.8 x10_2/uL
KIDNEY_L ([…], time 7 day): 1.1 g
KIDNEY_R ([…], time 7 day): 1.1 g
KIDNEY_TOTAL ([…], time 7 day): 2.2 g
KIDNEY_L ([…], time 14 day): 1.3 g
KIDNEY_R ([…], time 14 day): 1.2 g
KIDNEY_TOTAL ([…], time 14 day): 2.5 g
KIDNEY_L ([…], time 28 day): 1.5 g
KIDNEY_R ([…], time 28 day): 1.5 g
KIDNEY_TOTAL ([…], time 28 day): 3.1 g
LIVER ([…], time 7 day): 12.9 g
LIVER ([…], time 14 day): 15.3 g
LIVER ([…], time 28 day): 18.6 g
A/G ([…], time 7 day): 0.9
ALP ([…], time 7 day): 1835.8 IU/L
ALT ([…], time 7 day): 44.6 IU/L
AST ([…], time 7 day): 70.8 IU/L
BUN ([…], time 7 day): 15.6 mg/dL
CRE ([…], time 7 day): 0.2 mg/dL
Ca ([…], time 7 day): 11.1 mg/dL
Cl ([…], time 7 day): 104 meq/L
DBIL ([…], time 7 day): 0.016 mg/dL
GLC ([…], time 7 day): 184 mg/dL
IP ([…], time 7 day): 7.7 mg/dL
K ([…], time 7 day): 3.7 meq/L
LDH ([…], time 7 day): 67 IU/L
Na ([…], time 7 day): 141.4 meq/L
PL ([…], time 7 day): 156.4 mg/dL
RALB ([…], time 7 day): 2.6 g/dL
TBIL ([…], time 7 day): 0.05 mg/dL
TC ([…], time 7 day): 83.4 mg/dL
TG ([…], time 7 day): 102 mg/dL
TP ([…], time 7 day): 5.6 g/dL
gamma-GTP ([…], time 7 day): 1 IU/L
A/G ([…], time 14 day): 0.8
ALP ([…], time 14 day): 1653.4 IU/L
ALT ([…], time 14 day): 47.4 IU/L
AST ([…], time 14 day): 83.6 IU/L
BUN ([…], time 14 day): 17.8 mg/dL
CRE ([…], time 14 day): 0.2 mg/dL
Ca ([…], time 14 day): 10.9 mg/dL
Cl ([…], time 14 day): 105 meq/L
DBIL ([…], time 14 day): 0.014 mg/dL
GLC ([…], time 14 day): 185.8 mg/dL
IP ([…], time 14 day): 7.3 mg/dL
K ([…], time 14 day): 4.1 meq/L
LDH ([…], time 14 day): 92.4 IU/L
Na ([…], time 14 day): 142.4 meq/L
PL ([…], time 14 day): 156.2 mg/dL
RALB ([…], time 14 day): 2.7 g/dL
TBIL ([…], time 14 day): 0.044 mg/dL
TC ([…], time 14 day): 77.8 mg/dL
TG ([…], time 14 day): 123.8 mg/dL
TP ([…], time 14 day): 5.8 g/dL
gamma-GTP ([…], time 14 day): 1.4 IU/L
A/G ([…], time 28 day): 0.8
ALP ([…], time 28 day): 1381.2 IU/L
ALT ([…], time 28 day): 39.4 IU/L
AST ([…], time 28 day): 64 IU/L
BUN ([…], time 28 day): 17.4 mg/dL
CRE ([…], time 28 day): 0.2 mg/dL
Ca ([…], time 28 day): 10.8 mg/dL
Cl ([…], time 28 day): 103.6 meq/L
DBIL ([…], time 28 day): 0.014 mg/dL
GLC ([…], time 28 day): 187.2 mg/dL
IP ([…], time 28 day): 6.6 mg/dL
K ([…], time 28 day): 3.6 meq/L
LDH ([…], time 28 day): 47.8 IU/L
Na ([…], time 28 day): 143 meq/L
PL ([…], time 28 day): 154.2 mg/dL
RALB ([…], time 28 day): 2.7 g/dL
TBIL ([…], time 28 day): 0.062 mg/dL
TC ([…], time 28 day): 78 mg/dL
TG ([…], time 28 day): 133.6 mg/dL
TP ([…], time 28 day): 6.2 g/dL
gamma-GTP ([…], time 28 day): 1 IU/L
